Reference: PubChem BioAssay (NCI)
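Each compound was tested at five concentrations against cells in 96-well plates for 48 hours. GI50 marks 50% less growth. TGI denotes the concentration required for complete inhibition of growth.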

Key:
Assay in all cases: NCI-60 cell line screen, 48 h
ACHN renal = system: ACHN renal
CAKI-1 renal = system: CAKI-1 renal
HOP-62 NSCLC = system: HOP-62 NSCLC
K-562 leukemia = system: K-562 leukemia
MCF7 breast = system: MCF7 breast
MDA-MB-435 = system: MDA-MB-435
MOLT-4 leukemia = system: MOLT-4 leukemia
PC-3 prostate = system: PC-3 prostate
RXF 393 renal = system: RXF 393 renal
SN12C renal = system: SN12C renal

For `CCCCCCCCCCNCCSS(=O)(=O)O`, the GI50 (ACHN renal) was 10.1 µM, the TGI (ACHN renal) was 25.4 µM and the GI50 (CAKI-1 renal) was 14.5 µM. The TGI (CAKI-1 renal) was 33.3 µM, the GI50 (HOP-62 NSCLC) was 1.86 µM and the TGI (HOP-62 NSCLC) was 3.58 µM. The GI50 (K-562 leukemia) was 2.61 µM, the TGI (K-562 leukemia) was 7.28 µM and the GI50 (MCF7 breast) was 1.81 µM. For the same compound, the TGI (MCF7 breast) was 3.38 µM, the GI50 (MDA-MB-435) was 1.14 µM and the TGI (MDA-MB-435) was 2.91 µM. The GI50 (MOLT-4 leukemia) was 2.06 µM, the TGI (MOLT-4 leukemia) was 4.92 µM and the GI50 (PC-3 prostate) was 1.98 µM. It also gave a TGI (PC-3 prostate) of 4.07 µM, a GI50 (RXF 393 renal) of 2.21 µM and a TGI (RXF 393 renal) of 3.91 µM. It also gave a GI50 (SN12C renal) of 1.86 µM and a TGI (SN12C renal) of 3.6 µM.
With `Cc1ccc(Cl)c(NS(=O)(=O)c2ccc(-c3cnc(C4CC4)o3)cc2)c1` the GI50 (ACHN renal) was 0.205 µM, the TGI (ACHN renal) was over 72.7 µM and the GI50 (CAKI-1 renal) was 0.0531 µM. The TGI (CAKI-1 renal) was 10.1 µM, the GI50 (HOP-62 NSCLC) was 0.268 µM and the TGI (HOP-62 NSCLC) was over 83.7 µM. The GI50 (K-562 leukemia) was 0.0479 µM, the TGI (K-562 leukemia) was over 100 µM and the GI50 (MCF7 breast) was 0.0407 µM. For the same compound, the TGI (MCF7 breast) was 25.9 µM, the GI50 (MDA-MB-435) was 0.0382 µM and the TGI (MDA-MB-435) was 2.23 µM. The GI50 (MOLT-4 leukemia) was 0.166 µM, the TGI (MOLT-4 leukemia) was over 48.3 µM and the GI50 (PC-3 prostate) was 0.077 µM. It also gave a TGI (PC-3 prostate) of over 68.6 µM, a GI50 (RXF 393 renal) of 0.199 µM and a TGI (RXF 393 renal) of over 100 µM. For the same compound, the GI50 (SN12C renal) was 0.415 µM and the TGI (SN12C renal) was over 74.9 µM.
Compound `CC1=C(C(=O)Nc2ccc(F)c(Cl)c2)C(c2cccc(Oc3ccccc3)c2)NC(=S)N1` (centres undefined) has a GI50 (ACHN renal) of 12.3 µM, a TGI (ACHN renal) of 36.1 µM and a GI50 (CAKI-1 renal) of 15.9 µM. The TGI (CAKI-1 renal) was over 50 µM, the GI50 (HOP-62 NSCLC) was 14.7 µM and the TGI (HOP-62 NSCLC) was 30.1 µM. For the same compound, the GI50 (K-562 leukemia) was 10.7 µM, the TGI (K-562 leukemia) was 31.6 µM and the GI50 (MCF7 breast) was 12.8 µM. The TGI (MCF7 breast) was over 50 µM, the GI50 (MDA-MB-435) was 11.9 µM and the TGI (MDA-MB-435) was 33.8 µM. It also gave a GI50 (MOLT-4 leukemia) of over 50 µM, a TGI (MOLT-4 leukemia) of over 50 µM and a GI50 (PC-3 prostate) of 11.9 µM. It also gave a TGI (PC-3 prostate) of 48.2 µM, a GI50 (RXF 393 renal) of 6.79 µM and a TGI (RXF 393 renal) of 15.6 µM. The GI50 (SN12C renal) was 9.27 µM and the TGI (SN12C renal) was 17.6 µM.
Compound `COc1ccc2c(c1)CCc1cc(OC)ccc1/[N+]([O-])=[N+]\2[O-]` has a TGI (ACHN renal) of 26.3 µM, a TGI (CAKI-1 renal) of 34 µM and a TGI (HOP-62 NSCLC) of 52.8 µM. For the same compound, the TGI (K-562 leukemia) was over 72.1 µM, the TGI (MCF7 breast) was 26.7 µM and the TGI (MDA-MB-435) was 32.2 µM. The TGI (MOLT-4 leukemia) was 20.3 µM, the TGI (PC-3 prostate) was 31.6 µM and the TGI (RXF 393 renal) was 12.2 µM. It also gave a TGI (SN12C renal) of 31.6 µM.
With `O=C(c1ccc([N+](=O)[O-])cc1)C(Br)C(Br)c1ccnc2ccccc12` (centres undefined) the TGI (ACHN renal) was 17 µM, the TGI (CAKI-1 renal) was 24.6 µM and the TGI (HOP-62 NSCLC) was 29.7 µM. It also gave a TGI (K-562 leukemia) of over 33.3 µM, a TGI (MCF7 breast) of 8.86 µM and a TGI (MDA-MB-435) of 7.85 µM. For the same compound, the TGI (MOLT-4 leukemia) was 14.7 µM, the TGI (PC-3 prostate) was 21.1 µM and the TGI (RXF 393 renal) was 21.2 µM. For the same compound, the TGI (SN12C renal) was 14.4 µM.
Work on `C#C[C@@]1(O)[C@@H](CO)O[C@@H](n2cc(C(F)(F)F)c3c(N)ncnc32)[C@@H]1O` yielded a GI50 (ACHN renal) of 0.831 µM, a TGI (ACHN renal) of over 100 µM and a GI50 (CAKI-1 renal) of 2.19 µM. The TGI (CAKI-1 renal) was over 100 µM, the GI50 (HOP-62 NSCLC) was 1.75 µM and the TGI (HOP-62 NSCLC) was over 100 µM. It also gave a GI50 (K-562 leukemia) of 0.291 µM, a TGI (K-562 leukemia) of 0.909 µM and a GI50 (MCF7 breast) of 0.0711 µM. It also gave a GI50 (MDA-MB-435) of 0.808 µM, a TGI (MDA-MB-435) of 11.3 µM and a GI50 (MOLT-4 leukemia) of 0.29 µM. It also gave a TGI (MOLT-4 leukemia) of 1.33 µM, a GI50 (PC-3 prostate) of 0.427 µM and a TGI (PC-3 prostate) of over 21.1 µM. The GI50 (RXF 393 renal) was 0.841 µM, the TGI (RXF 393 renal) was 2.74 µM and the GI50 (SN12C renal) was 0.658 µM. It also gave a TGI (SN12C renal) of over 100 µM.
With `CCCCOc1ccc(/C=N/Nc2cc(C)nc3ccc(Br)cc23)cc1` the GI50 (ACHN renal) was 1.73 µM, the TGI (ACHN renal) was 3.11 µM and the GI50 (CAKI-1 renal) was 1.71 µM. It also gave a TGI (CAKI-1 renal) of 3.11 µM, a GI50 (HOP-62 NSCLC) of 1.47 µM and a TGI (HOP-62 NSCLC) of 2.94 µM. It also gave a GI50 (K-562 leukemia) of 1.71 µM, a TGI (K-562 leukemia) of 3.97 µM and a GI50 (MCF7 breast) of 1.83 µM. For the same compound, the TGI (MCF7 breast) was 3.68 µM, the GI50 (MDA-MB-435) was 1.8 µM and the TGI (MDA-MB-435) was 3.27 µM. The GI50 (MOLT-4 leukemia) was 1.91 µM, the TGI (MOLT-4 leukemia) was 4.11 µM and the GI50 (PC-3 prostate) was 1.75 µM. The TGI (PC-3 prostate) was 3.37 µM, the GI50 (RXF 393 renal) was 1.6 µM and the TGI (RXF 393 renal) was 3.05 µM. It also gave a GI50 (SN12C renal) of 1.74 µM and a TGI (SN12C renal) of 3.25 µM.
Work on `O=C(NCCOCCOCCOCCNC(=O)c1cc2c(o1)C(=O)c1ccccc1C2=O)NC12CC3CC(CC(C3)C1)C2` yielded a GI50 (ACHN renal) of 1.75 µM, a TGI (ACHN renal) of 4.21 µM and a GI50 (CAKI-1 renal) of 2.37 µM. For the same compound, the TGI (CAKI-1 renal) was 11.5 µM, the GI50 (HOP-62 NSCLC) was 2.03 µM and the TGI (HOP-62 NSCLC) was 3.53 µM. The GI50 (K-562 leukemia) was 1.98 µM, the TGI (K-562 leukemia) was 8.91 µM and the GI50 (MCF7 breast) was 1.16 µM. The TGI (MCF7 breast) was 3.22 µM, the GI50 (MDA-MB-435) was 0.388 µM and the TGI (MDA-MB-435) was 1.36 µM. For the same compound, the GI50 (MOLT-4 leukemia) was 2.87 µM, the TGI (MOLT-4 leukemia) was 8.04 µM and the GI50 (PC-3 prostate) was 1.95 µM. It also gave a TGI (PC-3 prostate) of 13.4 µM, a GI50 (RXF 393 renal) of 1.58 µM and a TGI (RXF 393 renal) of 3.05 µM. For the same compound, the GI50 (SN12C renal) was 1.34 µM and the TGI (SN12C renal) was 2.71 µM.
`Cn1c(=O)c(Oc2ccc(F)cc2F)cc2cnc(N[C@@H]3CCOC3)nc21` showed a GI50 (ACHN renal) of over 25 µM, a TGI (ACHN renal) of over 25 µM and a GI50 (CAKI-1 renal) of over 25 µM. The TGI (CAKI-1 renal) was over 25 µM, the GI50 (HOP-62 NSCLC) was over 25 µM and the TGI (HOP-62 NSCLC) was over 25 µM. It also gave a GI50 (K-562 leukemia) of over 25 µM, a TGI (K-562 leukemia) of over 25 µM and a GI50 (MCF7 breast) of over 25 µM. The TGI (MCF7 breast) was over 25 µM, the GI50 (MDA-MB-435) was over 25 µM and the TGI (MDA-MB-435) was over 25 µM. For the same compound, the GI50 (MOLT-4 leukemia) was over 25 µM, the TGI (MOLT-4 leukemia) was over 25 µM and the GI50 (PC-3 prostate) was over 25 µM. It also gave a TGI (PC-3 prostate) of over 25 µM, a GI50 (RXF 393 renal) of over 25 µM and a TGI (RXF 393 renal) of over 25 µM. The GI50 (SN12C renal) was over 25 µM and the TGI (SN12C renal) was over 25 µM.
For `C=C1C(=O)O[C@H]2[C@H]1CC/C(COC(=O)/C=C\C(=O)NCc1ccc(Cn3c(=O)sn(CCI)c3=O)cc1)=C\CC[C@@]1(C)O[C@@H]21`, the GI50 (ACHN renal) was 1.93 µM, the TGI (ACHN renal) was 3.74 µM and the GI50 (CAKI-1 renal) was 1.66 µM. It also gave a TGI (CAKI-1 renal) of 3.03 µM, a GI50 (HOP-62 NSCLC) of 15.1 µM and a TGI (HOP-62 NSCLC) of 28.6 µM. For the same compound, the GI50 (K-562 leukemia) was 2.45 µM, the TGI (K-562 leukemia) was over 100 µM and the GI50 (MCF7 breast) was 3.37 µM. For the same compound, the TGI (MCF7 breast) was 25.9 µM, the GI50 (MDA-MB-435) was 3.04 µM and the TGI (MDA-MB-435) was 8.68 µM. For the same compound, the GI50 (MOLT-4 leukemia) was 2.24 µM, the TGI (MOLT-4 leukemia) was 6.32 µM and the GI50 (PC-3 prostate) was 7.37 µM. For the same compound, the TGI (PC-3 prostate) was 21.5 µM, the GI50 (RXF 393 renal) was 1.81 µM and the TGI (RXF 393 renal) was 3.69 µM. The GI50 (SN12C renal) was 3.15 µM and the TGI (SN12C renal) was 10.8 µM.
Work on `O=C1C=C(OCC=C(C(F)(F)F)C(F)(F)F)c2ccccc2C1=O` yielded a GI50 (ACHN renal) of 1.85 µM, a TGI (ACHN renal) of 4.01 µM and a GI50 (CAKI-1 renal) of 3.15 µM. For the same compound, the TGI (CAKI-1 renal) was 10.4 µM, the GI50 (HOP-62 NSCLC) was 1.87 µM and the TGI (HOP-62 NSCLC) was 3.69 µM. For the same compound, the GI50 (K-562 leukemia) was 1.97 µM, the TGI (K-562 leukemia) was 5.42 µM and the GI50 (MCF7 breast) was 1.39 µM. It also gave a TGI (MCF7 breast) of 3.94 µM, a GI50 (MDA-MB-435) of 1.74 µM and a TGI (MDA-MB-435) of 3.3 µM. It also gave a GI50 (MOLT-4 leukemia) of 2.35 µM, a TGI (MOLT-4 leukemia) of 5.38 µM and a GI50 (PC-3 prostate) of 1.92 µM. It also gave a TGI (PC-3 prostate) of 5.91 µM, a GI50 (RXF 393 renal) of 1.69 µM and a TGI (RXF 393 renal) of 3.18 µM. The GI50 (SN12C renal) was 1.09 µM and the TGI (SN12C renal) was 2.37 µM.
